Experimental data from patent US12077531B2, “Imidazopyridinone compound” (KISSEI PHARMACEUTICAL CO., LTD., priority 2018, dated 2024).
pIC50: −log10 of the molar value. Where two headings read alike, the source gives them in different places.

Tests used:
human PHD2184-418 = human PHD2184-418 (Homo sapiens (Human), UniProt Q9GZT9); assay: PHD2 inhibitory test (fluorescence polarization, binding between PHD2 and HIF-1α); conditions: human PHD2184-418, FITC-labeled HIF-1α556-574, 2 μM 2-oxoglutarate, 37° C. 60 minutes
Method in brief: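 N-His-tagged human PHD2 (residues 184–418, E. coli-expressed) was preincubated with compound, then FITC-Ahx-HIF-1α556-574 peptide was added in pH 7.4 HEPES buffer with 10 μM MnCl2 and 2 μM 2-oxoglutarate. After 60 min at 37 °C, fluorescence polarization (ex 470/em 530 nm) was read. Inhibition was calculated against compound-free wells.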

[1] = Rat PK study: concentration of compounds in large intestine tissue and plasma; type: in vivo; conditions: male, SD, 3 mg/kg oral; for Kp at 8 h: large intestine tissue / plasma, read-out: C/P: ratio of the above Colon and Plasma; for AUC / Cmax: non-fasted; for AUC: read-out: AUC: area under the plasma test compound concentration-time curve (converted); for Cmax: read-out: Cmax: maximum plasma concentration of test compounds in the case of oral administration
Description: Test Example 3 Concentration of Compounds in Large Intestine Tissue
Test compounds (3 mg/kg/5 mL) prepared by 0.05% methylcellulose were orally administered to non-fasted rats (SD, 8-weeks-old, male, Japan SLC). Blood samples were collected from jugular vein at 0.25, 0.5, 1, 2, 4, 6 and 8 hours after the administration. Laparotomy was performed under isoflurane anesthesia and large intestine was isolated. Collected distal large intestine (about 5 cm) was cut open, and then the large intestine was washed with saline on a dish. After washing, the large intestine was minced by a small scissors. About 150 mg thereof was moved to tube. To the tube was added 100 μL of saline, the mixture was homogenized using shake master (1000 rpm×30 minutes). Samples were prepared by the addition with quadruple volume of saline as final volume. The concentrations of the test compound in large intestine tissue and plasma were measured through a quantitative analysis using liquid chromatography-mass spectrometry (LC/MS).

[2] = tested on: TNBS induced colitis model rat; assay: Therapeutic effect in TNBS induced colitis model rat (intestinal permeability of FITC); type: in vivo; conditions: po, 72 h, 3 mg/kg orally once a day for 3 days, SD rats, mean, test compounds-free group 0, TNBS-untreated group 100, read-out: Inhibition (%): suppressive rate on the intestinal permeability
Description: Test Example 2 Therapeutic Effect in Colitis Model
(1) TNBS Induced Colitis Model Rat
SD rats: 8-weeks-old male SLC (Japan SLC) were used. Under pentobarbital anesthesia, 300 μL of TNBS (28 mg/mL) prepared by 50% ethanol was administered at a point 8 cm from anus in large intestine to cause inflammation. To the solvent-treated group was administrated 300 μL of 50% ethanol. Animals were fasted for 48 hours prior to administration of TNBS. Test compounds (3 mg/kg) prepared by 0.05% methylcellulose solution were orally administered once a day from next day, and it was administered for a total of 3 days. After administering for 3 days, 50 mg/kg FITC was orally administered at 4 hours after administration. Blood samples were collected from jugular vein under isoflurane anesthesia after 4 hours. The serum was centrifuged and fluorescence intensity was detected by PHERAstar FSX (BMG Labtech) to measure the concentration of FITC permeating into circulating blood through the mesentery. The suppressive rate on the intestinal permeability of test compounds was calculated based on the value of test compounds-free group as 0 and the value of TNBS-untreated group as 100.

[3] = large intestine tissue (distal large intestine), read-out: Colon: concentrations of the test compound in large intestine tissue after 8 hours
[4] = plasma, read-out: Plasma: plasma test compound concentration after 8 hours

Sequence of human PHD2184-418 (Q9GZT9 184-418): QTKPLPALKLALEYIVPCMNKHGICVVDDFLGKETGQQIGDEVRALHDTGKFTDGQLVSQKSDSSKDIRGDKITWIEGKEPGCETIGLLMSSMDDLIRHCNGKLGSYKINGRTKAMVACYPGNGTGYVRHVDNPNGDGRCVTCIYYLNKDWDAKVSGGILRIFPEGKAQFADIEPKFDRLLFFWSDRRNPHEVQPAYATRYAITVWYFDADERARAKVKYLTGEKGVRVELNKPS

Cn1ccnc1CN1CC[C@H](n2c(=O)n(-c3ccc(-c4ccc(C(=O)O)cc4)cc3O)c3cccnc32)C1 [Example 39, (S)-3′-Hydroxy-4′-(3-(1-((1-methyl-1H-imidazol-2-yl)methyl)pyrrolidin-3-yl)-2-oxo-2,3-dihydro-1H-imidazo[4,5-b]pyridin-1-yl)-[1,1′-biphenyl]-4-carboxylic acid]
pIC50 (human PHD2184-418): 6.47 | concentration at 8 h [1, 3]: 214 ng/g | Kp at 8 h [1]: 71 | concentration at 8 h [1, 4]: 3 ng/mL | AUC ([1]; plasma): 34.8 ng·h/mL | Cmax ([1]; plasma): 7 ng/mL | inhibition in vivo at 3 mg/kg [2]: 95%

Cn1ccnc1CN1CC[C@H](n2c(=O)n(-c3ccc(-c4ccc(C(=O)O)cc4)c(O)c3)c3cccnc32)C1 [Example 40, (S)-2′-Hydroxy-4′-(3-(1-((1-methyl-1H-imidazol-2-yl)methyl)pyrrolidin-3-yl)-2-oxo-2,3-dihydro-1H-imidazo[4,5-b]pyridin-1-yl)-[1,1′-biphenyl]-4-carboxylic acid]
pIC50 (human PHD2184-418): 6.12 | concentration at 8 h [1, 3]: 209 ng/g | Kp at 8 h [1]: > 209 | concentration at 8 h [1, 4]: < 1 ng/mL | Cmax ([1]; plasma): < 1 ng/mL | inhibition in vivo at 3 mg/kg [2]: 84%

O=C(O)c1ccc(-c2ccc(-n3c(=O)n([C@H]4CCN(Cc5cc(C(=O)O)ccn5)C4)c4ncccc43)cc2)cc1 [Example 43, (S)-2-((3-(1-(4′-Carboxy-[1,1′-biphenyl]-4-yl)-2-oxo-1,2-dihydro-3H-imidazo[4,5-b]pyridin-3-yl)pyrrolidin-1-yl)methyl)isonicotinic acid]
pIC50 (human PHD2184-418): 6.70 | concentration at 8 h [1, 3]: 84 ng/g | Kp at 8 h [1]: 42 | concentration at 8 h [1, 4]: 2 ng/mL | AUC ([1]; plasma): 35.2 ng·h/mL | Cmax ([1]; plasma): 8 ng/mL | inhibition in vivo at 3 mg/kg [2]: 59%

O=C(O)c1ccc(-c2ccc(-n3c(=O)n([C@H]4CCN(Cc5cc(C(=O)O)ccn5)C4)c4ncccc43)cc2O)cc1 [Example 45, (S)-2-((3-(1-(4′-Carboxy-2-hydroxy-[1,1′-biphenyl]-4-yl)-2-oxo-1,2-dihydro-3H-imidazo[4,5-b]pyridin-3-yl)pyrrolidin-1-yl)methyl)isonicotinic acid]
pIC50 (human PHD2184-418): 6.57 | concentration at 8 h [1, 3]: 87 ng/g | Kp at 8 h [1]: > 87 | concentration at 8 h [1, 4]: < 1 ng/mL | AUC ([1]; plasma): 6.68 ng·h/mL | Cmax ([1]; plasma): 2 ng/mL | inhibition in vivo at 3 mg/kg [2]: 51%

O=C(O)c1ccc(-c2ccc(-n3c(=O)n([C@H]4CCN(Cc5cc(C(=O)O)ccn5)C4)c4ncccc43)cn2)cc1 [Example 46, (S)-2-((3-(1-(6-(4-Carboxyphenyl)pyridin-3-yl)-2-oxo-1,2-dihydro-3H-imidazo[4,5-b]pyridin-3-yl)pyrrolidin-1-yl)methyl)isonicotinic acid]
pIC50 (human PHD2184-418): 6.82 | concentration at 8 h [1, 3]: 174 ng/g | Kp at 8 h [1]: > 174 | concentration at 8 h [1, 4]: < 1 ng/mL | AUC ([1]; plasma): 5.23 ng·h/mL | Cmax ([1]; plasma): 3 ng/mL | inhibition in vivo at 3 mg/kg [2]: 63%

Cn1ccnc1CN1CC[C@H](n2c(=O)n(-c3ccc(-c4ccc(C(=O)O)cc4)cc3)c3cccnc32)C1 [Example 47, (S)-4′-(3-(1-((1-Methyl-1H-imidazol-2-yl)methyl)pyrrolidin-3-yl)-2-oxo-2,3-dihydro-1H-imidazo[4,5-b]pyridin-1-yl)-[1,1′-biphenyl]-4-carboxylic acid]
pIC50 (human PHD2184-418): 6.39 | concentration at 8 h [1, 3]: 317 ng/g | Kp at 8 h [1]: 18 | concentration at 8 h [1, 4]: 18 ng/mL | AUC ([1]; plasma): 334 ng·h/mL | Cmax ([1]; plasma): 60 ng/mL | inhibition in vivo at 3 mg/kg [2]: 85%

Cn1c(C(=O)O)cnc1CN1CC[C@H](n2c(=O)n(-c3ccc(-c4ccc(C(=O)O)cc4)cc3O)c3cccnc32)C1 [Example 49, (S)-2-((3-(1-(4′-Carboxy-3-hydroxy-[1,1′-biphenyl]-4-yl)-2-oxo-1,2-dihydro-3H-imidazo[4,5-b]pyridin-3-yl)pyrrolidin-1-yl)methyl)-1-methyl-1H-imidazole-5-carboxylic acid]
pIC50 (human PHD2184-418): 6.92 | concentration at 8 h [1, 3]: 201 ng/g | Kp at 8 h [1]: > 201 | concentration at 8 h [1, 4]: < 1 ng/mL | AUC ([1]; plasma): 15 ng·h/mL | Cmax ([1]; plasma): 4 ng/mL | inhibition in vivo at 3 mg/kg [2]: 82%

Cn1c(C(=O)O)cnc1CN1CC[C@H](n2c(=O)n(-c3ccc(-c4ccc(C(=O)O)cc4)cc3)c3cccnc32)C1 [Example 83, (S)-2-((3-(1-(4′-Carboxy-[1,1′-biphenyl]-4-yl)-2-oxo-1,2-dihydro-3H-imidazo[4,5-b]pyridin-3-yl)pyrrolidin-1-yl)methyl)-1-methyl-1H-imidazole-5-carboxylic acid]
pIC50 (human PHD2184-418): 6.85 | concentration at 8 h [1, 3]: 54 ng/g | Kp at 8 h [1]: > 54 | concentration at 8 h [1, 4]: < 1 ng/mL | AUC ([1]; plasma): 21.5 ng·h/mL | Cmax ([1]; plasma): 5 ng/mL | inhibition in vivo at 3 mg/kg [2]: 85%

Cn1c(C(=O)O)cnc1CN1CC[C@H](n2c(=O)n(-c3ccc(-c4ccc(C(=O)O)cc4)c(O)c3)c3cccnc32)C1 [Example 84, (S)-2-((3-(1-(4′-Carboxy-2-hydroxy-[1,1′-biphenyl]-4-yl)-2-oxo-1,2-dihydro-3H-imidazo[4,5-b]pyridin-3-yl)pyrrolidin-1-yl)methyl)-1-methyl-1H-imidazole-5-carboxylic acid]
pIC50 (human PHD2184-418): 6.82 | concentration at 8 h [1, 3]: 99 ng/g | Kp at 8 h [1]: > 99 | concentration at 8 h [1, 4]: < 1 ng/mL | AUC ([1]; plasma): 1.27 ng·h/mL | Cmax ([1]; plasma): 1 ng/mL | inhibition in vivo at 3 mg/kg [2]: 117%
